Holding throughout (format): cell-based
Test [1] has as its system Escherichia coli (carbapenem-resistant clinical isolate; ATCC25922). In words: MIC by micro broth dilution (CLSI), Escherichia coli. The note with it: Escherichia coli. The procedure, abridged:
(§1)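 CLSI broth microdilution in cation-adjusted Mueller-Hinton broth, compounds in DMSO at 128 to 0.06 mg/L. Inoculum 10^5 CFU/mL from 0.5 McFarland suspensions diluted 100-fold; 35±2 °C, 20 h in air. Clinical isolates plus ATCC/NCTC quality-control strains; interpretation per CLSI 2019 M100.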

Test [2] deals with Acinetobacter baumannii (carbapenem-resistant clinical isolates; ATCC19606). In words: MIC by micro broth dilution (CLSI), Acinetobacter baumannii. The settings on record: Acinetobacter baumannii; for MIC50 / MIC90: ATCC19606. The gist of the method:
as §1
Background: Broth dilution looks for growth in wells or tubes with falling amounts of substance.

Test [3] concerns Staphylococcus aureus (methicillin-resistant and sensitive clinical isolates; ATCC29213). In words: MIC by micro broth dilution (CLSI), Staphylococcus aureus. The procedure, abridged:
as §1

Where [4] appears, read: Clinical strain, read-out: MIC50.
The mark [5] stands for this setting: Clinical strain, read-out: MIC90.
[6] abbreviates: clinical strains, micro broth dilution, CAMHB, 35±2° C., 20 hours, read-out: MIC50 Escherichia coli Clinical strain.
The mark [7] stands for this setting: clinical strains, micro broth dilution, CAMHB, 35±2° C., 20 hours, read-out: MIC90 Escherichia coli Clinical strain.
Where [8] appears, read: standard strain ATCC25922, micro broth dilution, CAMHB, 35±2° C., 20 hours, read-out: MIC Escherichia coli Standard strain ATCC25922.
The mark [9] stands for this setting: clinical strains, micro broth dilution, CAMHB, 35±2° C., 20 hours, read-out: MIC50 Acinetobacter baumannii Clinical strain.
[10] abbreviates: clinical strains, micro broth dilution, CAMHB, 35±2° C., 20 hours, read-out: MIC90 Acinetobacter baumannii Clinical strain.
[11] abbreviates: standard strain ATCC19606, micro broth dilution, CAMHB, 35±2° C., 20 hours, read-out: MIC Acinetobacter baumannii Standard strain ATCC19606.
[12] abbreviates: clinical strains, micro broth dilution, CAMHB, 35±2° C., 20 hours, read-out: MIC50 Staphylococcus aureus Clinical strain.
Where [13] appears, read: clinical strains, micro broth dilution, CAMHB, 35±2° C., 20 hours, read-out: MIC90 Staphylococcus aureus Clinical strain.
Setting [14] is: standard strain ATCC29213, micro broth dilution, CAMHB, 35±2° C., 20 hours, read-out: MIC Staphylococcus aureus Standard strain ATCC29213.

Molecules are shown by their SMILES. ≈ marks a conversion by molar mass, not a printed value. Like-named read-outs stand apart in the source and are kept apart here.

As a reminder, the MIC50 is an inhibitory concentration at the 50% level, which refers to growth in some studies and to a panel of isolates in others. One may read the MIC90 as the lowest concentration that inhibits either 90% of growth or 90% of the strains tested, depending on the study. In general, MIC refers to the smallest concentration in the dilution series that meets the test's criterion for growth inhibition.

As for `[2H]c1ccnc2c(O)c([N+](=O)[O-])cc(Cl)c12` [Example 120, 5-chloro-7-nitroquinolin-4-d-8-ol], the MIC50 in test [1] (ATCC25922, Clinical strain, read-out: MIC50) was found to be 32 µg/mL (≈ 142 µM); in test [2] (setting [4]), 8 µg/mL (≈ 35.5 µM); in test [3] (setting [4]), 4 µg/mL (≈ 17.7 µM). For the same molecule, the MIC90 in test [1] (ATCC25922, Clinical strain, read-out: MIC90) turned out to be 32 µg/mL (≈ 142 µM); in test [2] (setting [5]), 16 µg/mL (≈ 70.9 µM); in test [3] (setting [5]) it was 16 µg/mL (≈ 70.9 µM). Also, the minimal inhibitory concentration (MIC) in test [1] (Standard strain ATCC25922, read-out: MIC) was 16 µg/mL (≈ 70.9 µM); in test [2] (Standard strain ATCC19606, read-out: MIC), 8 µg/mL (≈ 35.5 µM); in test [3] (Standard strain ATCC29213, read-out: MIC), 8 µg/mL (≈ 35.5 µM).

As to `O=[N+]([O-])c1cc(Br)c2cccnc2c1O` [Example 121, 5-bromo-7-nitroquinolin-8-ol], the figures for the MIC50 in test [1] (setting [6]), in test [2] (setting [9]) and in test [3] (setting [12]) were 128 µg/mL (≈ 476 µM), 16 µg/mL (≈ 59.5 µM) and 4 µg/mL (≈ 14.9 µM), respectively. For the same molecule, the MIC90 was 128 µg/mL (≈ 476 µM) in test [1] (setting [7]), 32 µg/mL (≈ 119 µM) in test [2] (setting [10]) and 16 µg/mL (≈ 59.5 µM) in test [3] (setting [13]). Further, the minimal inhibitory concentration (MIC) was determined as 16 µg/mL (≈ 59.5 µM) in test [1] (setting [8]), 8 µg/mL (≈ 29.7 µM) in test [2] (setting [11]) and 8 µg/mL (≈ 29.7 µM) in test [3] (setting [14]).

`O=[N+]([O-])c1c(F)cc2cccnc2c1O` [Example 122, 6-fluoro-7-nitroquinolin-8-ol]: the MIC50 in test [1] (setting [6]), in test [2] (setting [9]) and in test [3] (setting [12]) was 64 µg/mL (≈ 307 µM) in each case. Further, the MIC90 in test [1] (setting [7]), in test [2] (setting [10]) and in test [3] (setting [13]) was 64 µg/mL (≈ 307 µM) in each case. In addition, the results for the MIC in test [1] (setting [8]), in test [2] (setting [11]) and in test [3] (setting [14]) were 64 µg/mL (≈ 307 µM), 64 µg/mL (≈ 307 µM) and 128 µg/mL (≈ 615 µM), respectively.

Take `O=[N+]([O-])c1c(Cl)c(F)c2cccnc2c1O` [Example 123, 6-chloro-5-fluoro-7-nitroquinolin-8-ol]: the MIC50 was determined as 16 µg/mL (≈ 66 µM) in test [1] (setting [6]), 4 µg/mL (≈ 16.5 µM) in test [2] (setting [9]) and 2 µg/mL (≈ 8.24 µM) in test [3] (setting [12]). The MIC90 in test [1] (setting [7]) amounted to 32 µg/mL (≈ 132 µM); in test [2] (setting [10]), 8 µg/mL (≈ 33 µM); in test [3] (setting [13]), 4 µg/mL (≈ 16.5 µM). Further, the minimal inhibitory concentration (MIC) in test [1] (setting [8]) was determined as 8 µg/mL (≈ 33 µM); in test [2] (setting [11]) it was 4 µg/mL (≈ 16.5 µM); in test [3] (setting [14]), 4 µg/mL (≈ 16.5 µM).

As to `O=[N+]([O-])c1c(Br)c(F)c2cccnc2c1O` [Example 124, 6-bromo-5-fluoro-7-nitroquinolin-8-ol], the MIC50 in test [1] (setting [6]) was found to be 16 µg/mL (≈ 55.7 µM); in test [2] (setting [9]), 4 µg/mL (≈ 13.9 µM); in test [3] (setting [12]), 4 µg/mL (≈ 13.9 µM). In addition, the MIC90 turned out to be 64 µg/mL (≈ 223 µM) in test [1] (setting [7]), 8 µg/mL (≈ 27.9 µM) in test [2] (setting [10]) and 4 µg/mL (≈ 13.9 µM) in test [3] (setting [13]). The results for the minimum inhibitory concentration (MIC) in test [1] (setting [8]), in test [2] (setting [11]) and in test [3] (setting [14]) were 8 µg/mL (≈ 27.9 µM), 8 µg/mL (≈ 27.9 µM) and 4 µg/mL (≈ 13.9 µM), respectively.

As for `O=[N+]([O-])c1c(F)c(F)c2cccnc2c1O` [Example 125, 5,6-difluoro-7-nitroquinolin-8-ol], the MIC50 in test [1] (setting [6]) was 16 µg/mL (≈ 70.8 µM); in test [2] (setting [9]) it was 8 µg/mL (≈ 35.4 µM); in test [3] (setting [12]), 8 µg/mL (≈ 35.4 µM). In addition, the MIC90 in test [1] (setting [7]) worked out at 16 µg/mL (≈ 70.8 µM); in test [2] (setting [10]), 16 µg/mL (≈ 70.8 µM); in test [3] (setting [13]) it was 8 µg/mL (≈ 35.4 µM). Besides, the minimal inhibitory concentration (MIC) in test [1] (setting [8]), in test [2] (setting [11]) and in test [3] (setting [14]) was 8 µg/mL (≈ 35.4 µM) each time.

The values are drawn from patent publication US20240246916A1, “7-NITRO-8-HYDROXYQUINOLINE DERIVATIVES, PREPARATION METHOD THEREFORE AND MEDICAL USE THEREOF” (Jiangsu Yahong Meditech Co., Ltd., priority 2021, published 2024).
